The molecules below were run against T1, full length active recombinant SYK enzyme (Homo sapiens, UniProt P43405) (assay: Inhibition of Syk tyrosine phosphorylation activity (LANCE TR-FRET kinase assay)). Settings: 1 nM active SYK enzyme, 550 nM SYK-substrate, 100 μM ATP, 1 hour at room temperature.
T1 construct: full length active recombinant SYK enzyme (Millipore, Calif.); purchased Millipore
Format: biochemical

Row | Compound | IC50 [µM]
1 | CC[C@@H](Nc1nnc(C(N)=O)c(Nc2cc(C)cc(F)c2)n1)C(N)=O [Example 197, (R)-3-((1-amino-1-oxobutan-2-yl)amino)-5-((3-fluoro-5-methylphenyl)amino)-1,2,4-triazine-6-carboxamide] | 0.01 to 0.1
2 | NC(=O)c1nnc(N[C@@H]2CCCC[C@@H]2N)nc1Nc1ccn2ccnc2c1 [Example 198, 3-(((1R,2S)-2-aminocyclohexyl)amino)-5-(imidazo[1,2-a]pyridin-7-ylamino)-1,2,4-triazine-6-carboxamide] | 0.001 to 0.01
3 | CC[C@@H](Nc1nnc(C(N)=O)c(Nc2cncs2)n1)C(N)=O [Example 199, (R)-3-((1-amino-1-oxobutan-2-yl)amino)-5-(thiazol-5-ylamino)-1,2,4-triazine-6-carboxamide] | 0.1 to 1
4 | CC[C@@H](Nc1nnc(C(N)=O)c(Nc2ccc(Cl)cc2)n1)C(N)=O [Example 200, (R)-3-((1-amino-1-oxobutan-2-yl)amino)-5-((4-chlorophenyl)amino)-1,2,4-triazine-6-carboxamide] | 0.01 to 0.1
5 | NC(=O)c1nnc(N[C@@H]2CCCC(F)(F)[C@@H]2N)nc1Nc1cccc(Cl)c1 [Example 201, 3-(((1R,2R)-2-amino-3,3-difluorocyclohexyl)amino)-5-((3-chlorophenyl)amino)-1,2,4-triazine-6-carboxamide] | 0.01 to 0.1
6 | Cc1cc(F)cc(Nc2nc(N[C@@H]3CCCC(F)(F)[C@@H]3N)nnc2C(N)=O)c1 [Example 202, 3-(((1R,2R)-2-amino-3,3-difluorocyclohexyl)amino)-5-((3-fluoro-5-methylphenyl)amino)-1,2,4-triazine-6-carboxamide] | 0.01 to 0.1
7 | CC[C@@H](Nc1nnc(C(N)=O)c(Nc2ccc(C)c(C)c2)n1)C(N)=O [Example 203, (R)-3-((1-amino-1-oxobutan-2-yl)amino)-5-((3,4-dimethylphenyl)amino)-1,2,4-triazine-6-carboxamide] | 0.01 to 0.1
8 | Cc1ccc(Nc2nc(N[C@@H]3CCCC(F)(F)[C@@H]3N)nnc2C(N)=O)cc1C [Example 204, 3-(((1R,2R)-2-amino-3,3-difluorocyclohexyl)amino)-5-((3,4-dimethylphenyl)amino)-1,2,4-triazine-6-carboxamide] | 0.01 to 0.1
9 | Cc1ccc(Nc2nc(N[C@@H]3CCCC(F)(F)[C@@H]3N)nnc2C(N)=O)cc1F [Example 205, 3-(((1R,2R)-2-amino-3,3-difluorocyclohexyl)amino)-5-((3-fluoro-4-methylphenyl)amino)-1,2,4-triazine-6-carboxamide] | 0.01 to 0.1
10 | NC(=O)c1nnc(N[C@@H]2CCCC[C@@H]2N)nc1NC1CCc2ccccc2C1 (stereo partly drawn) [Example 206, 3-(((1R,2S)-2-aminocyclohexyl)amino)-5-((1,2,3,4-tetrahydronaphthalen-2-yl)amino)-1,2,4-triazine-6-carboxamide] | 0.01 to 0.1
11 | Cc1ccc(Nc2nc(N[C@@H]3CCCC[C@@H]3N)nnc2C(N)=O)cc1C [Example 207, 3-(((1R,2S)-2-aminocyclohexyl)amino)-5-((3,4-dimethylphenyl)amino)-1,2,4-triazine-6-carboxamide] | 0.001 to 0.01
12 | Cc1ccc(Nc2nc(N[C@@H](C(N)=O)C(C)C)nnc2C(N)=O)cc1C [Example 208, (R)-3-((1-amino-3-methyl-1-oxobutan-2-yl)amino)-5-((3,4-dimethylphenyl)amino)-1,2,4-triazine-6-carboxamide] | 0.01 to 0.1
13 | Cc1ccc(Nc2nc(N[C@H](CC(C)C)C(N)=O)nnc2C(N)=O)cc1C [Example 209, (R)-3-((1-amino-4-methyl-1-oxopentan-2-yl)amino)-5-((3,4-dimethylphenyl)amino)-1,2,4-triazine-6-carboxamide] | 0.001 to 0.01
14 | Cc1ccc(Nc2nc(N[C@H](CC3CC3)C(N)=O)nnc2C(N)=O)cc1C [Example 210, (R)-3-((1-amino-3-cyclopropyl-1-oxopropan-2-yl)amino)-5-((3,4-dimethylphenyl)amino)-1,2,4-triazine-6-carboxamide] | 0.001 to 0.01
15 | CC[C@@H](Nc1nnc(C(N)=O)c(Nc2ccc3c(c2)CCC3)n1)C(N)=O [Example 211, (R)-3-((1-amino-1-oxobutan-2-yl)amino)-5-((2,3-dihydro-1H-inden-5-yl)amino)-1,2,4-triazine-6-carboxamide] | 0.001 to 0.01
16 | CC[C@@H](Nc1nnc(C(N)=O)c(Nc2ccc3c(c2)CCOC3)n1)C(N)=O [Example 212, (R)-3-((1-amino-1-oxobutan-2-yl)amino)-5-(isochroman-6-ylamino)-1,2,4-triazine-6-carboxamide] | 0.01 to 0.1
17 | NC(=O)c1nnc(N[C@@H]2CCCC(F)(F)[C@@H]2N)nc1Nc1ccc2c(c1)CCC2 [Example 213, 3-(((1R,2R)-2-amino-3,3-difluorocyclohexyl)amino)-5-((2,3-dihydro-1H-inden-5-yl)amino)-1,2,4-triazine-6-carboxamide] | 0.01 to 0.1
18 | NC(=O)c1nnc(N[C@@H]2CCCC(F)(F)[C@@H]2N)nc1Nc1ccc2c(c1)CCOC2 [Example 214, 3-(((1R,2R)-2-amino-3,3-difluorocyclohexyl)amino)-5-(isochroman-6-ylamino)-1,2,4-triazine-6-carboxamide] | 0.01 to 0.1
19 | CC[C@@H](Nc1nnc(C(N)=O)c(Nc2ccc3c(c2)COC3)n1)C(N)=O [Example 215, (R)-3-((1-amino-1-oxobutan-2-yl)amino)-5-((1,3-dihydroisobenzofuran-5-yl)amino)-1,2,4-triazine-6-carboxamide] | 0.01 to 0.1
20 | NC(=O)c1nnc(N[C@@H]2CCCC(F)(F)[C@@H]2N)nc1Nc1ccc2c(c1)COC2 [Example 216, 3-(((1R,2R)-2-amino-3,3-difluorocyclohexyl)amino)-5-((1,3-dihydroisobenzofuran-5-yl)amino)-1,2,4-triazine-6-carboxamide] | 0.01 to 0.1
21 | NC(=O)c1nnc(N[C@@H]2CCCC(F)(F)[C@@H]2N)nc1Nc1ccc2c(c1)CS(=O)(=O)C2 [Example 217, 3-(((1R,2R)-2-amino-3,3-difluorocyclohexyl)amino)-5-((2,2-dioxido-1,3-dihydrobenzo[c]thiophen-5-yl)amino)-1,2,4-triazine-6-carboxamide] | 0.1 to 1
22 | Cc1cc(Nc2nc(N[C@@H]3CCCC(F)(F)[C@@H]3N)nnc2C(N)=O)ccc1Cl [Example 218, 3-(((1R,2R)-2-amino-3,3-difluorocyclohexyl)amino)-5-((4-chloro-3-methylphenyl)amino)-1,2,4-triazine-6-carboxamide] | 0.01 to 0.1
23 | Cc1ccc(Nc2nc(N[C@@H]3CCCC(F)(F)[C@@H]3N)nnc2C(N)=O)cc1Cl [Example 219, 3-(((1R,2R)-2-amino-3,3-difluorocyclohexyl)amino)-5-((3-chloro-4-methylphenyl)amino)-1,2,4-triazine-6-carboxamide] | 0.01 to 0.1
24 | CC[C@@H](Nc1nnc(C(N)=O)c(Nc2ccc3c(c2)CS(=O)(=O)C3)n1)C(N)=O [Example 220, (R)-3-((1-amino-1-oxobutan-2-yl)amino)-5-((2,2-dioxido-1,3-dihydrobenzo[c]thiophen-5-yl)amino)-1,2,4-triazine-6-carboxamide] | 0.01 to 0.1
